Experimental data taken from patent US10772902B2, “Use of floridoside or isethionic acid to potentiate antimicrobial activity of antibiotics” (OCELAND BIOLOGICALS LIMITED, priority 2016, dated 2020).
Converted amounts (≈) assume the structure as drawn.

Tests used:
S. Enteritidis [1] = experiment: Antimicrobial effect of seaweed pure compounds, broth inoculation method (log CFU/mL); type: cell-based, Salmonella Enteritidis; settings: 15 μg/mL of compound, no antibiotic; for colony count of S. Enteritidis, log CFU: control log CFU 6.5
Experimental: These pure compounds were tested in vitro against S. Enteritidis using the broth inoculation method of Example 2, but without the tetracycline or streptomycin. Fifteen (15) μg/mL of each compound was added to TSA broth and inoculated with S. Enteritidis.

S. Enteritidis [2] = experiment: Minimum inhibitory concentrations (MIC25, MIC50) of antibiotics, broth inoculation method; type: cell-based; settings: Salmonella enterica, 37° C., 16-18 h, inoculum 1×10^8 cells/mL
Experimental: Nalidixic acid resistant strain of S. Enteritidis was provided by Laboratory for Foodborne Zoonoses, Public Health Agency of Canada, Guelph, Ontario. Half strength tryptic soy agar (TSA) medium (Difco) supplemented with nalidixic acid at a concentration of 32 μg/mL was used for bacterial growth. Tetracycline and Streptomycin were obtained from Sigma Aldrich (Oakville, Ontario, Canada). Stock solutions of antibiotics and seaweed extract were prepared and stored at −20° C. Other chemicals and media were purchased from Difco Laboratories, Baltimore, Md., USA. Red seaweeds (Chondrus crispus, and Sarcodiotheca gaudichaudii) were provided by Acadian Seaplants Limited, Nova Scotia, Canada.
The susceptibility of S. Enteritidis to tetracycline and streptomycin was tested by broth inoculation method. The testing of MICs (MIC25 and MIC50) was performed in triplicates with an inoculum of 1×10^8 cells/mL. […] MATLAB R2010a (curve fitting tool) was used to determine minimum inhibitory concentrations (MIC) of the antibiotics.

S. Enteritidis [3] = experiment: Combined effect of seaweed extract and antibiotics, liquid culture inhibition test (CFU); type: cell-based, Salmonella Enteritidis
Experimental: Seaweed water extracts (SWE) were prepared by grinding sun dried seaweeds to fine powder using a coffee grinder, and adding 5 grams of algal powder to 20 mL distilled water (DW). The resulting slurry was incubated at 50° C. for 3 hours under shaking condition at 140 rpm using an orbital shaker (New Brunswick Scientific, Enfield, Conn., US). The slurry was then centrifuged at 10,000 g for 15 min. The supernatant was recovered and the residual pellet was re-extracted three times using the same procedure. The resulting supernatants were pooled and freeze dried (Thermo Fisher Scientific Inc., US). Dilutions of SWE were prepared by dissolving 0.2, 0.4, 0.8, 1 and 2 g of soluble freeze dried extract in 1 mL distilled water. These dilutions were used as working concentration in all the experiments. The combined effect of the C. crispus (CC) extract or the S. gaudichaudii (SG) extract, with tetracycline or streptomycin (at MIC25 or MIC50), was evaluated in vitro by liquid culture inhibition test. To 10 mL of tryptic soy broth, seaweed extract (SWE) and 100 μL Salmonella Enteritidis (OD600=0.1, 1×10^8 cells/mL) were added. The final concentrations of seaweed extracts in 10 mL with tryptic soy broth were 200, 400, or 800 μg/mL. Culture tubes were incubated at 37° C. for 24 hrs. The growth of S. Enteritidis was determined by plating the serially diluted culture on TSA plates to enumerate the colony forming units (CFU).

SMILES	colony count of S. Enteritidis, log CFU (S. Enteritidis [1]) [log CFU]	MIC (S. Enteritidis [2]) [mg/L]	MIC50 (S. Enteritidis [2]) [mg/L]	CFU of S. Enteritidis compared to control (S. Enteritidis [1])	other results
O=S(=O)(O)CCO [isethionic acid, Isethionic acid]	6.33				
[H]/N=C(/N)N[C@H]1[C@H](O)[C@@H](O)[C@H](O[C@@H]2O[C@@H](C)[C@](O)(C=O)[C@H]2O[C@@H]2O[C@@H](CO)[C@H](O)[C@@H](O)[C@@H]2NC)[C@@H](N/C(N)=N\[H])[C@@H]1O [Streptomycin]		1 (≈ 1.72 µM)	1.63 (≈ 2.8 µM)		
OCC(CO)O[C@H]1O[C@H](CO)[C@H](O)[C@H](O)[C@H]1O [Floridoside, 2-O-α-D-galactopyranosylglycerol]	6.21				
CN(C)[C@@H]1C(O)=C(C(N)=O)C(=O)[C@@]2(O)C(O)=C3C(=O)c4c(O)cccc4[C@@](C)(O)[C@H]3C[C@@H]12 [tetracycline]		≤ 7.9	≤ 4		growth of S. Enteritidis, log CFU (S. Enteritidis [3]; MIC controls (tetracycline without SG extract)): 5.5 log CFU; growth of S. Enteritidis, log CFU (S. Enteritidis [3]; tetracycline alone at MIC25, 24 hrs): 6.1 log CFU; growth of S. Enteritidis, log CFU (S. Enteritidis [3]; tetracycline alone at MIC50, 24 hrs): 5.5 log CFU
NC(=O)NCCC[C@H](N)C(=O)O [citrulline]				no statistically significant difference	
NCCS(=O)(=O)O [taurine]				no statistically significant difference	
